Measured values: PubChem BioAssay AID1963837 (Molecular Pharmacology Branch, DTP, NCI, 2024)

System: 843126-344-R-J1-PDC complex spheroid viability
Assay: Anticancer human tumor 843126-344-R-J1-PDC patient-derived melanoma cell line growth inhibition [POLQ]
Settings: for IC50: curve of first compound; for viability, T/C: stronger effect = lower value
Summary of the method: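 Complex spheroid viability model combining PDC tumour cells with endothelial (HUVEC) and MSC stromal cells. Novobiocin, ART-558 or RP6685 were tested singly and in combination with standard and investigational anticancer drugs. Each was titrated in half-log steps from near clinical Cmax, or from 10 microM where Cmax was unknown.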

[1] = second compound 0.0316 µM, first compound 0.0316 µM
[2] = second compound 0.0316 µM, first compound 0.1 µM
[3] = second compound 0.0316 µM, first compound 0.316 µM
[4] = second compound 0.0316 µM, first compound 1 µM
[5] = second compound 0.0316 µM, first compound 3.16 µM
[6] = second compound 0.0316 µM, first compound 10 µM
[7] = second compound 0.1 µM, first compound 0.0316 µM
[8] = second compound 0.1 µM, first compound 0.1 µM
[9] = second compound 0.1 µM, first compound 0.316 µM
[10] = second compound 0.1 µM, first compound 1 µM
[11] = second compound 0.1 µM, first compound 3.16 µM
[12] = second compound 0.1 µM, first compound 10 µM
[13] = second compound 0.316 µM, first compound 0.0316 µM
[14] = second compound 0.316 µM, first compound 0.1 µM
[15] = second compound 0.316 µM, first compound 0.316 µM
[16] = second compound 0.316 µM, first compound 1 µM
[17] = second compound 0.316 µM, first compound 3.16 µM
[18] = second compound 0.316 µM, first compound 10 µM
[19] = second compound 1 µM, first compound 0.0316 µM
[20] = second compound 1 µM, first compound 0.1 µM
[21] = second compound 1 µM, first compound 0.316 µM
[22] = second compound 1 µM, first compound 1 µM
[23] = second compound 1 µM, first compound 3.16 µM
[24] = second compound 1 µM, first compound 10 µM
[25] = second compound 3.16 µM, first compound 0.0316 µM
[26] = second compound 3.16 µM, first compound 0.1 µM
[27] = second compound 3.16 µM, first compound 0.316 µM
[28] = second compound 3.16 µM, first compound 1 µM
[29] = second compound 3.16 µM, first compound 3.16 µM
[30] = second compound 3.16 µM, first compound 10 µM
[31] = second compound 10 µM, first compound 0.0316 µM
[32] = second compound 10 µM, first compound 0.1 µM
[33] = second compound 10 µM, first compound 0.316 µM
[34] = second compound 10 µM, first compound 1 µM
[35] = second compound 10 µM, first compound 3.16 µM
[36] = second compound 10 µM, first compound 10 µM
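For viability, T/C in this document: spheroids exposed to drugs for seven days before readout.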

CCc1cc2c(N3CCc4c(cc(Cn5ccnc5)cc4-c4cn(C)nc4C(F)(F)F)C3=O)cc(C)nc2c(OC)n1 + COC1C(OC(N)=O)C(O)C(Oc2ccc3c(O)c(NC(=O)c4ccc(O)c(CC=C(C)C)c4)c(=O)oc3c2C)OC1(C)C
IC50 (second compound 0.0316 µM): > 10000 nM
IC50 (second compound 0.1 µM): 8910 nM
IC50 (second compound 0.316 µM): > 10000 nM
IC50 (second compound 1 µM): > 10000 nM
IC50 (second compound 3.16 µM): > 10000 nM
IC50 (second compound 10 µM): > 10000 nM
viability, T/C [1]: 103%
viability, T/C [2]: 78%
viability, T/C [3]: 89.6%
viability, T/C [4]: 74.5%
viability, T/C [5]: 74.3%
viability, T/C [6]: 59.8%
viability, T/C [7]: 90.6%
viability, T/C [8]: 87.1%
viability, T/C [9]: 89%
viability, T/C [10]: 81.1%
viability, T/C [11]: 64.6%
viability, T/C [12]: 48.4%
viability, T/C [13]: 96.2%
viability, T/C [14]: 80.6%
viability, T/C [15]: 72.4%
viability, T/C [16]: 68.2%
viability, T/C [17]: 74.2%
viability, T/C [18]: 56.4%
viability, T/C [19]: 76.9%
viability, T/C [20]: 67.4%
viability, T/C [21]: 69.4%
viability, T/C [22]: 68.5%
viability, T/C [23]: 72.4%
viability, T/C [24]: 71.3%
viability, T/C [25]: 91.1%
viability, T/C [26]: 77.4%
viability, T/C [27]: 76.9%
viability, T/C [28]: 62.5%
viability, T/C [29]: 72.7%
viability, T/C [30]: 61.8%
viability, T/C [31]: 82.1%
viability, T/C [32]: 96.1%
viability, T/C [33]: 84.2%
viability, T/C [34]: 66.2%
viability, T/C [35]: 58.5%
viability, T/C [36]: 62.6%

COc1cccc2c1C(=O)c1c(O)c3c(c(O)c1C2=O)CC(O)(C(=O)CO)CC3OC1CC(N)C(O)C(C)O1 (stereo unspecified) + Nc1ccc(C#CCN(C(=O)Cc2ncc(C(F)(F)F)cc2C(F)(F)F)c2ccc(F)cc2)nn1
IC50 (second compound 0.0316 µM): 393 nM
IC50 (second compound 0.1 µM): 412 nM
IC50 (second compound 0.316 µM): 293 nM
IC50 (second compound 1 µM): 348 nM
IC50 (second compound 3.16 µM): 290 nM
IC50 (second compound 10 µM): 288 nM
viability, T/C [1]: 84.7%
viability, T/C [2]: 84.8%
viability, T/C [3]: 57.3%
viability, T/C [4]: 16.1%
viability, T/C [5]: 3.95%
viability, T/C [6]: 2.82%
viability, T/C [7]: 94.7%
viability, T/C [8]: 84.4%
viability, T/C [9]: 61.3%
viability, T/C [10]: 15.7%
viability, T/C [11]: 3.48%
viability, T/C [12]: 2.63%
viability, T/C [13]: 77.9%
viability, T/C [14]: 94.6%
viability, T/C [15]: 47.5%
viability, T/C [16]: 12.2%
viability, T/C [17]: 2.99%
viability, T/C [18]: 2.71%
viability, T/C [19]: 78.5%
viability, T/C [20]: 79%
viability, T/C [21]: 52.6%
viability, T/C [22]: 14.2%
viability, T/C [23]: 3.21%
viability, T/C [24]: 2.34%
viability, T/C [25]: 82.4%
viability, T/C [26]: 76.3%
viability, T/C [27]: 47.8%
viability, T/C [28]: 13.9%
viability, T/C [29]: 3.21%
viability, T/C [30]: 2.76%
viability, T/C [31]: 80.6%
viability, T/C [32]: 73.4%
viability, T/C [33]: 48.5%
viability, T/C [34]: 10.4%
viability, T/C [35]: 2.78%
viability, T/C [36]: 2.29%

Cn1ncnc1[C@H]1c2n[nH]c(=O)c3cc(F)cc(c23)N[C@@H]1c1ccc(F)cc1 + Nc1ccc(C#CCN(C(=O)Cc2ncc(C(F)(F)F)cc2C(F)(F)F)c2ccc(F)cc2)nn1
IC50 (second compound 0.0316 µM): > 100 nM
IC50 (second compound 0.1 µM): > 100 nM
IC50 (second compound 0.316 µM): > 100 nM
IC50 (second compound 1 µM): > 100 nM
IC50 (second compound 3.16 µM): > 100 nM
IC50 (second compound 10 µM): > 100 nM
viability, T/C (second compound 0.0316 µM, first compound 0.000316 µM): 87.1%
viability, T/C (second compound 0.0316 µM, first compound 0.001 µM): 93.9%
viability, T/C (second compound 0.0316 µM, first compound 0.00316 µM): 101%
viability, T/C (second compound 0.0316 µM, first compound 0.01 µM): 93.4%
viability, T/C [1]: 96.1%
viability, T/C [2]: 82.6%
viability, T/C (second compound 0.1 µM, first compound 0.000316 µM): 89%
viability, T/C (second compound 0.1 µM, first compound 0.001 µM): 91.7%
viability, T/C (second compound 0.1 µM, first compound 0.00316 µM): 107%
viability, T/C (second compound 0.1 µM, first compound 0.01 µM): 96.2%
viability, T/C [7]: 99.7%
viability, T/C [8]: 97.7%
viability, T/C (second compound 0.316 µM, first compound 0.000316 µM): 108%
viability, T/C (second compound 0.316 µM, first compound 0.001 µM): 93.3%
viability, T/C (second compound 0.316 µM, first compound 0.00316 µM): 111%
viability, T/C (second compound 0.316 µM, first compound 0.01 µM): 93.2%
viability, T/C [13]: 99.8%
viability, T/C [14]: 99.8%
viability, T/C (second compound 1 µM, first compound 0.000316 µM): 97.3%
viability, T/C (second compound 1 µM, first compound 0.001 µM): 102%
viability, T/C (second compound 1 µM, first compound 0.00316 µM): 87.9%
viability, T/C (second compound 1 µM, first compound 0.01 µM): 106%
viability, T/C [19]: 104%
viability, T/C [20]: 73.1%
viability, T/C (second compound 3.16 µM, first compound 0.000316 µM): 93.3%
viability, T/C (second compound 3.16 µM, first compound 0.001 µM): 102%
viability, T/C (second compound 3.16 µM, first compound 0.00316 µM): 88%
viability, T/C (second compound 3.16 µM, first compound 0.01 µM): 95.7%
viability, T/C [25]: 102%
viability, T/C [26]: 94.8%
viability, T/C (second compound 10 µM, first compound 0.000316 µM): 101%
viability, T/C (second compound 10 µM, first compound 0.001 µM): 83.6%
viability, T/C (second compound 10 µM, first compound 0.00316 µM): 97%
viability, T/C (second compound 10 µM, first compound 0.01 µM): 89.5%
viability, T/C [31]: 88.6%
viability, T/C [32]: 80.2%
